“And” between values parts separate entries of the source, which are not always exact repeats. Equal values may be shown once.
System: 596521-263-R-J1-PDC complex spheroid growth
Assay: Anticancer human tumor 596521-263-R-J1-PDC patient-derived soft tissue sarcoma cell line growth inhibition [Asc]
Settings: for viability, T/C: stronger effect = lower value
Summary of the method: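 Spheroid model: tumor line + HUVEC + hMSC. Single agents and combinations; top conc. at/near clinical Cmax (10 microM if undetermined), half-log dilutions. DMSO stocks at 800-fold test concentration.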

[1] = curve of first compound, second compound 0.0316 µM
[2] = curve of first compound, second compound 0.1 µM
[3] = curve of first compound, second compound 0.316 µM
[4] = curve of first compound, second compound 1 µM
[5] = curve of first compound, second compound 3.16 µM
[6] = curve of first compound, second compound 10 µM
[7] = second compound 0.0316 µM, first compound 0.00316 µM
[8] = second compound 0.0316 µM, first compound 0.01 µM
[9] = second compound 0.0316 µM, first compound 0.0316 µM
[10] = second compound 0.0316 µM, first compound 0.1 µM
[11] = second compound 0.0316 µM, first compound 0.316 µM
[12] = second compound 0.0316 µM, first compound 1 µM
[13] = second compound 0.1 µM, first compound 0.00316 µM
[14] = second compound 0.1 µM, first compound 0.01 µM
[15] = second compound 0.1 µM, first compound 0.0316 µM
[16] = second compound 0.1 µM, first compound 0.1 µM
[17] = second compound 0.1 µM, first compound 0.316 µM
[18] = second compound 0.1 µM, first compound 1 µM
[19] = second compound 0.316 µM, first compound 0.00316 µM
[20] = second compound 0.316 µM, first compound 0.01 µM
[21] = second compound 0.316 µM, first compound 0.0316 µM
[22] = second compound 0.316 µM, first compound 0.1 µM
[23] = second compound 0.316 µM, first compound 0.316 µM
[24] = second compound 0.316 µM, first compound 1 µM
[25] = second compound 1 µM, first compound 0.00316 µM
[26] = second compound 1 µM, first compound 0.01 µM
[27] = second compound 1 µM, first compound 0.0316 µM
[28] = second compound 1 µM, first compound 0.1 µM
[29] = second compound 1 µM, first compound 0.316 µM
[30] = second compound 1 µM, first compound 1 µM
[31] = second compound 3.16 µM, first compound 0.00316 µM
[32] = second compound 3.16 µM, first compound 0.01 µM
[33] = second compound 3.16 µM, first compound 0.0316 µM
[34] = second compound 3.16 µM, first compound 0.1 µM
[35] = second compound 3.16 µM, first compound 0.316 µM
[36] = second compound 3.16 µM, first compound 1 µM
[37] = second compound 10 µM, first compound 0.00316 µM
[38] = second compound 10 µM, first compound 0.01 µM
[39] = second compound 10 µM, first compound 0.0316 µM
[40] = second compound 10 µM, first compound 0.1 µM
[41] = second compound 10 µM, first compound 0.316 µM
[42] = second compound 10 µM, first compound 1 µM
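Note: spheroids exposed to compounds for 7 days.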

Q: How did the IC50 [1] turn out when `O=C(c1ccc(F)c(F)c1Nc1ccc(I)cc1F)N1CC(O)([C@@H]2CCCCN2)C1` + Cc1c(S(C)(=O)=O)c(-c2cc(F)cc(N3CCN(c4ccc(NS(=O)(=O)c5ccc(NC(CCN6CCC(C(=O)OCCCP(=O)(O)O)CC6)CSc6ccccc6)c(S(=O)(=O)C(F)(F)F)c5)cc4)CC3)c2)c(-c2ccc(Cl)cc2)n1C(C)C was run?
A: The IC50 was 349 nM.

Q: What about the IC50 [2] of the same molecule?
A: The IC50 was 236 nM.

Q: What about the IC50 [3] of the same molecule?
A: The IC50 was 209 nM.

Q: And the IC50 [4]?
A: The IC50 was 172 nM.

Q: And the IC50 [5]?
A: The IC50 was 124 nM.

Q: What about the IC50 [6] of the same molecule?
A: Its IC50 is 55.5 nM.

Q: What about the viability, T/C [7] of the same molecule?
A: Its viability, T/C is 96%.

Q: What about the viability, T/C [8] of the same molecule?
A: Its viability, T/C is 93%.

Q: And the viability, T/C [9]?
A: Its viability, T/C is 93.3%.

Q: What about the viability, T/C [10] of the same molecule?
A: Its viability, T/C is 74.9%.

Q: And the viability, T/C [11]?
A: The viability, T/C was 52.7%.

Q: What about the viability, T/C [12] of the same molecule?
A: Its viability, T/C is 30.2%.

Q: What about the viability, T/C [13] of the same molecule?
A: Its viability, T/C is 101%.

Q: And the viability, T/C [14]?
A: The viability, T/C was 102%.

Q: What about the viability, T/C [15] of the same molecule?
A: Its viability, T/C is 103%.

Q: What about the viability, T/C [16] of the same molecule?
A: Its viability, T/C is 70.2%.

Q: What about the viability, T/C [17] of the same molecule?
A: The viability, T/C was 45.5%.

Q: What about the viability, T/C [18] of the same molecule?
A: The viability, T/C was 29.9%.

Q: And the viability, T/C [19]?
A: Its viability, T/C is 87.1%.

Q: What about the viability, T/C [20] of the same molecule?
A: Its viability, T/C is 84%.

Q: What about the viability, T/C [21] of the same molecule?
A: The viability, T/C was 87.1%.

Q: And the viability, T/C [22]?
A: The viability, T/C was 71.1%.

Q: And the viability, T/C [23]?
A: Its viability, T/C is 38.1%.

Q: And the viability, T/C [24]?
A: Its viability, T/C is 22.9%.

Q: And the viability, T/C [25]?
A: The viability, T/C was 83.3%.

Q: And the viability, T/C [26]?
A: Its viability, T/C is 70.9%.

Q: What about the viability, T/C [27] of the same molecule?
A: Its viability, T/C is 84.8%.

Q: And the viability, T/C [28]?
A: Its viability, T/C is 66.3%.

Q: What about the viability, T/C [29] of the same molecule?
A: The viability, T/C was 31.4%.

Q: What about the viability, T/C [30] of the same molecule?
A: Its viability, T/C is 21.8%.

Q: And the viability, T/C [31]?
A: Its viability, T/C is 62.8%.

Q: And the viability, T/C [32]?
A: The viability, T/C was 71.4%.

Q: And the viability, T/C [33]?
A: The viability, T/C was 62.2%.

Q: What about the viability, T/C [34] of the same molecule?
A: Its viability, T/C is 55.8%.

Q: And the viability, T/C [35]?
A: The viability, T/C was 26.7%.

Q: And the viability, T/C [36]?
A: The viability, T/C was 16.8%.

Q: What about the viability, T/C [37] of the same molecule?
A: Its viability, T/C is 54.1%.

Q: What about the viability, T/C [38] of the same molecule?
A: Its viability, T/C is 57.4%.

Q: And the viability, T/C [39]?
A: Its viability, T/C is 55%.

Q: And the viability, T/C [40]?
A: The viability, T/C was 45%.

Q: What about the viability, T/C [41] of the same molecule?
A: The viability, T/C was 26.8%.

Q: What about the viability, T/C [42] of the same molecule?
A: Its viability, T/C is 18.6%.

Q: Which results are given for `O=C(c1cc(Cc2n[nH]c(=O)c3ccccc23)ccc1F)N1CCN(C(=O)C2CC2)CC1` + CNC(C)C(=O)NC1CN(S(=O)(=O)c2cccc(S(=O)(=O)N3CCC4CCC(C(=O)NC(c5ccccc5)c5ccccc5)N4C(=O)C(NC(=O)C(C)NC)C3)c2)CCC2CCC(C(=O)NC(c3ccccc3)c3ccccc3)N2C1=O?
A: IC50 (curve of first compound, second compound 0.00316 µM): < 31.6 nM; IC50 (curve of first compound, second compound 0.01 µM): 2080 nM; IC50 [1]: 4760 nM; IC50 [2]: 3650 nM; IC50 [3]: 2910 nM; IC50 [4]: 2230 nM; viability, T/C (second compound 0.00316 µM, first compound 0.0316 µM): 16.1%; viability, T/C (second compound 0.00316 µM, first compound 0.1 µM): 14.4%; viability, T/C (second compound 0.00316 µM, first compound 0.316 µM): 17.1%; viability, T/C (second compound 0.00316 µM, first compound 1 µM): 14.8%; viability, T/C (second compound 0.00316 µM, first compound 3.16 µM): 13.7%; viability, T/C (second compound 0.00316 µM, first compound 10 µM): 12.7%; viability, T/C (second compound 0.01 µM, first compound 0.0316 µM): 73.9%; viability, T/C (second compound 0.01 µM, first compound 0.1 µM): 61.2%; viability, T/C (second compound 0.01 µM, first compound 0.316 µM): 60.7%; viability, T/C (second compound 0.01 µM, first compound 1 µM): 64.3%; viability, T/C (second compound 0.01 µM, first compound 3.16 µM): 36.7%; viability, T/C (second compound 0.01 µM, first compound 10 µM): 45.1%; viability, T/C [9]: 90.9%; viability, T/C [10]: 84.4%; viability, T/C [11]: 87.2%; viability, T/C [12]: 71.8%; viability, T/C (second compound 0.0316 µM, first compound 3.16 µM): 54.6%; viability, T/C (second compound 0.0316 µM, first compound 10 µM): 42.4%; viability, T/C [15]: 79.1%; viability, T/C [16]: 73.4%; viability, T/C [17]: 75.5%; viability, T/C [18]: 78.1%; viability, T/C (second compound 0.1 µM, first compound 3.16 µM): 51.7%; viability, T/C (second compound 0.1 µM, first compound 10 µM): 37.7%; viability, T/C [21]: 77.4%; viability, T/C [22]: 79.2%; viability, T/C [23]: 80.5%; viability, T/C [24]: 72.4%; viability, T/C (second compound 0.316 µM, first compound 3.16 µM): 48.4%; viability, T/C (second compound 0.316 µM, first compound 10 µM): 36%; viability, T/C [27]: 68.7%; viability, T/C [28]: 71.5%; viability, T/C [29]: 61.7%; viability, T/C [30]: 69.1%; viability, T/C (second compound 1 µM, first compound 3.16 µM): 42.3%; viability, T/C (second compound 1 µM, first compound 10 µM): 31.3%

Q: Which results are given for `CCN1CCN(Cc2ccc(Nc3ncc(F)c(-c4cc(F)c5nc(C)n(C(C)C)c5c4)n3)nc2)CC1`?
A: viability, T/C (compound 0.00316 µM): 99.1% and 89.3% and 99.2%; viability, T/C (compound 0.01 µM): 103% and 87.3% and 82%; viability, T/C (compound 0.0316 µM): 96.3% and 101% and 86.1%; viability, T/C (compound 0.1 µM): 97.9% and 93.3% and 105%; viability, T/C (compound 0.316 µM): 96.8% and 101% and 92%; viability, T/C (compound 1 µM): 79.4% and 77.1% and 87.2%; IC50 (curve of compound): > 1000 nM

Q: Which results are given for `CCN1CCN(Cc2ccc(Nc3ncc(F)c(-c4cc(F)c5nc(C)n(C(C)C)c5c4)n3)nc2)CC1` + Cc1c(S(C)(=O)=O)c(-c2cc(F)cc(N3CCN(c4ccc(NS(=O)(=O)c5ccc(NC(CCN6CCC(C(=O)OCCCP(=O)(O)O)CC6)CSc6ccccc6)c(S(=O)(=O)C(F)(F)F)c5)cc4)CC3)c2)c(-c2ccc(Cl)cc2)n1C(C)C?
A: IC50 [1]: > 1000 nM; IC50 [2]: > 1000 nM; IC50 [3]: > 1000 nM; IC50 [4]: > 1000 nM; IC50 [5]: > 1000 nM; IC50 [6]: > 1000 nM; viability, T/C [7]: 94.2%; viability, T/C [8]: 95.2%; viability, T/C [9]: 92%; viability, T/C [10]: 84.3%; viability, T/C [11]: 91.4%; viability, T/C [12]: 97%; viability, T/C [13]: 93.7%; viability, T/C [14]: 91.5%; viability, T/C [15]: 94.1%; viability, T/C [16]: 81.1%; viability, T/C [17]: 88.7%; viability, T/C [18]: 82%; viability, T/C [19]: 102%; viability, T/C [20]: 79%; viability, T/C [21]: 77.8%; viability, T/C [22]: 75.7%; viability, T/C [23]: 75.3%; viability, T/C [24]: 83.8%; viability, T/C [25]: 83%; viability, T/C [26]: 73.9%; viability, T/C [27]: 78.5%; viability, T/C [28]: 70.5%; viability, T/C [29]: 87.7%; viability, T/C [30]: 67.1%; viability, T/C [31]: 68.1%; viability, T/C [32]: 69.6%; viability, T/C [33]: 63.3%; viability, T/C [34]: 59.6%; viability, T/C [35]: 66.8%; viability, T/C [36]: 66.4%; viability, T/C [37]: 58.1%; viability, T/C [38]: 57.1%; viability, T/C [39]: 56%; viability, T/C [40]: 54.8%; viability, T/C [41]: 57%; viability, T/C [42]: 55.1%
